Laboratory results as given in paper PMC12652222 (International Journal of Molecular Sciences, 2025).
Values joined by “and” are separate entries in the source; they are usually repeats but may differ in a detail not shown here. Equal values may be shown once.

Key:
[1] = Total antioxidant capacity (TAC); assay type: biochemical; settings: mean ± SE, n = 3
Protocol: (§1) The antioxidant activity was assessed using the iron reducing power (IRP) and the total antioxidant capacity (TAC). Ascorbic acid served as a standard to calculate the inhibition percentages (%) and the median inhibitory concentration (IC50) of each tested compound against the following radicals: nitric oxide (NO), hydroxyl (OH), hydrogen peroxide (H2O2), ABTS [79], and DPPH [80].

[2] = Nitric oxide (NO) radical scavenging; assay type: biochemical; settings: mean ± SE, n = 3
Protocol: as §1

proteinase enzyme = test: Proteinase inhibition (anti-arthritic); assay type: biochemical; parameters: Proteinase Inhibition (%): concentration or dose not given beside the values; settings: mean ± SE, n = 3
Protocol: (§2) Anti-arthritic activity was evaluated using diclofenac sodium as the reference drug. The inhibition percentage and IC50 were determined for protein denaturation and the proteinase enzyme.

[3] = target: acetylcholinesterase (AChE) (Homo sapiens, UniProt P22303); test: biochemical; settings: mean ± SE, n = 3; for IC50: read-out: AChE IC50 (µg/mL) (converted)
acetylcholinesterase (AChE), sequence (P22303 32-614, species assumed): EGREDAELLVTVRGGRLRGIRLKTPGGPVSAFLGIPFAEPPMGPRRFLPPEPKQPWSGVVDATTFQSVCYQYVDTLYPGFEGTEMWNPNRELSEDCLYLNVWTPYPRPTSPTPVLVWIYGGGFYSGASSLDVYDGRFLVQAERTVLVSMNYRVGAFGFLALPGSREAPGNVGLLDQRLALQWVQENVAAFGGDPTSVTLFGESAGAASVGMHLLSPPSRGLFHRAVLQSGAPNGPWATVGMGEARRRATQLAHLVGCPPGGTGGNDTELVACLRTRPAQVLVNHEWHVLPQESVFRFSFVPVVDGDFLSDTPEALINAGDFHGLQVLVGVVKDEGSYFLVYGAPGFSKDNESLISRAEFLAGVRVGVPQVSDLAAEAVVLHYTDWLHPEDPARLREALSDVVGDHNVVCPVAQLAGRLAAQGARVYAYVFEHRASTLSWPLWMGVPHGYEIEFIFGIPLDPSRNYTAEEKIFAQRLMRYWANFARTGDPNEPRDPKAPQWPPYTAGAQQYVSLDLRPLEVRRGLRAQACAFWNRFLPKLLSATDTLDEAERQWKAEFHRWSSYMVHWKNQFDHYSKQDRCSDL
Protocol: The inhibition percentage and IC50 of the acetylcholinesterase (AChE) enzyme were measured using the Ellman method.

[4] = Hydrogen peroxide (H2O2) scavenging; assay type: biochemical; settings: mean ± SE, n = 3
Protocol: as §1

α-glucosidase = test: α-Glucosidase inhibition; assay type: biochemical
Protocol: (§3) The IC50 and inhibition percentages (Inhib. %) of the enzymes α-amylase and α-glucosidase were calculated.

[5] = Iron-reducing power (IRP); assay type: biochemical; settings: mean ± SE, n = 3
Protocol: as §1

ABTS radical scavenging = assay type: biochemical; settings: mean ± SE, n = 3
Protocol: as §1

DPPH radical scavenging = assay type: biochemical; settings: mean ± SE, n = 3
Protocol: as §1

protein denaturation = test: Protein denaturation inhibition (anti-arthritic); assay type: biochemical; parameters: concentration or dose not given beside the values; settings: mean ± SE, n = 3
Protocol: as §2

α-amylase = target: T1, α-amylase (Homo sapiens, UniProt P04746); test: α-Amylase inhibition; assay type: biochemical; settings: for inhibition at 20 µg/mL: read-out: α-Amylase Inhibition (%)
T1 sequence (P04746 16-511): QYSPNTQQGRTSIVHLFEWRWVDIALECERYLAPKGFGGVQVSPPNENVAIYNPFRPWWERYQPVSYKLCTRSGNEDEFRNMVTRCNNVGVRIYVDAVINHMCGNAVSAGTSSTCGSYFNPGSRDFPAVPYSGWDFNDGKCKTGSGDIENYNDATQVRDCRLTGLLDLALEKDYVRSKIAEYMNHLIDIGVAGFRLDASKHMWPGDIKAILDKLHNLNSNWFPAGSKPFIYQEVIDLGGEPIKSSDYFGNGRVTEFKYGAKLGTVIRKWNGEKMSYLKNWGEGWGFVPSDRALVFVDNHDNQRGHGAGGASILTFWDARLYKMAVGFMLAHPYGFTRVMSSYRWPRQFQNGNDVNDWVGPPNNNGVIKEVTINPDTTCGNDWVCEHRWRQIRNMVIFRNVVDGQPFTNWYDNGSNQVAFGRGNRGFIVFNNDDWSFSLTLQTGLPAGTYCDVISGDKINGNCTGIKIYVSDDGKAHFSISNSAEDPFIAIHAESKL
Protocol: as §3

[6] = Hydroxyl (OH) radical scavenging; assay type: biochemical; settings: mean ± SE, n = 3
Protocol: as §1

| Structure (SMILES) | TAC (mg Gallic Acid/g) [1] | NO radical scavenging IC50 [2] [µg/mL] | Proteinase IC50 (proteinase enzyme) [µg/mL] | Proteinase Inhibition (%) (proteinase enzyme) | inhibition at 20 µg/mL [3] [%] | IC50 [3] [µM] | H2O2 scavenging IC50 [4] [µg/mL] | α-Glucosidase IC50 (α-glucosidase) [µg/mL] | IRP [5] | ABTS radical scavenging IC50 (ABTS radical scavenging) [µg/mL] | DPPH radical scavenging IC50 (DPPH radical scavenging) [µg/mL] | Protein Denaturation Inhibition (%) (protein denaturation) | inhibition at 20 µg/mL (α-amylase) [%] | OH radical scavenging IC50 [6] [µg/mL] | also measured |
| --- | --- | --- | --- | --- | --- | --- | --- | --- | --- | --- | --- | --- | --- | --- | --- |
| O=c1/c(=C\[C@H](O)[C@@H](O)[C@H](O)CO)sc2nc3sc4c(c3c(=O)n12)CCCC4 [8d, (E)-2-((2S,3R,4R)-2,3,4,5-tetrahydroxypentylidene)-6,7,8,9-tetrahydro-5H-benzo [4,5]thieno [2,3-d]thiazolo [3,2-a]-pyrimidine-3,5(2H)-dione] | 17.02 ± 0.21 mg Gallic Acid/g | 51.52 ± 0.85 | 65.40 ± 1.90 | 7.11 ± 0.18 | 5.61 ± 0.18 | 125 | 77.03 ± 1.82 | 33.99 ± 0.98 | 9.87 ± 0.21 µg/mL | 19.31 ± 0.23 | 28.53 ± 0.30 | 11.28 ± 0.18 | 13 ± 0.2 | 69.29 ± 2.28 | NO (%) ([2]; inhibition % at 20 µg/mL): 7.87 ± 0.21%; H2O2 (%) ([4]; inhibition % at 20 µg/mL): 7.66 ± 0.21%; ABTS (%) (ABTS radical scavenging; inhibition % at 20 µg/mL): 16.77 ± 0.21%; DPPH (%) (DPPH radical scavenging; inhibition % at 20 µg/mL): 13.62 ± 0.21%; OH (%) ([6]; inhibition % at 20 µg/mL): 6.84 ± 0.19% |
| O=c1/c(=C\[C@@H](O)[C@H](O)[C@H](O)CO)sc2nc3sc4c(c3c(=O)n12)CCCC4 [8e, (E)-2-((2R,3S,4R)-2,3,4,5-tetrahydroxypentylidene)-6,7,8,9-tetrahydro-5H-benzo [4,5]thieno [2,3-d]thiazolo [3,2-a]pyrimidine-3,5(2H)-dione] | 68.69 mg Gallic Acid/g and 68.69 ± 0.79 mg Gallic Acid/g | 6.80 ± 0.16 | 9.08 ± 0.11 | 50.90 ± 0.65 | 5.24 ± 0.17 | 134 | 10.17 ± 0.12 | 3.81 ± 0.05 | 61.54 µg/mL and 61.54 ± 0.79 µg/mL | 4.73 ± 0.05 | 5.95 ± 0.12 | 54.07 ± 0.65 | 62.2 ± 0.75 | 9.14 ± 0.05 | inhibition of α-glucosidase (α-glucosidase; at 20 µg/mL): 55.43 ± 0.75%; IC50 (α-amylase): 16.3 µM |
